What was measured:
[1] = test system: myeloperoxidase activity in neutrophils; assay: AOPP-HSA-induced myeloperoxidase activity in neutrophils, luminol chemiluminescence; type: cell-based; settings: neutrophils preincubated with various concentrations of NAC, AOPP-HSA 2 mg/ml, FIG. 1A
Description: (§1) Human serum albumin (HSA) was exposed to HOCl at a molar HSA/HOCl molar ratio of 1/60. The AOPP-HSA preparation was incubated 30 minutes at room temperature and then dialysed overnight against PBS. Neutrophils from the Ficoll gradient pellet were separated from erythrocytes by sedimentation in dextran. Residual erythrocytes were lysed by treating the cell pellet with lysis buffer containing ammonium chloride. Purified neutrophils were resuspended at a concentration of 5×10^6/ml in phenol-red free HBSS at pH 7.4 and preincubated with medium alone or various concentrations of NAC. The capacity of AOPP-HSA to activate monocyte or neutrophil oxygenation activities was measured by chemiluminescence using dimethylbiacridinium (lucigenin) for NADH oxidase activity or luminol for myeloperoxidase activity as chemoluminogenic substrates. One hundred microliters of monocyte suspension (2×10^5/ml) was automatically injected into the luminometer tubes containing 100 μl of HBSS (basal activity), or the tested preparations including: native HSA or AOPP-HSA at 2 mg/ml. Chemiluminescence production was measured in duplicate and luminescence intensity was expressed in counts/min integrated over a 40 minutes period.

[2] = test system: patients undergoing dialysis; settings: oral administration; Atherosclerosis 120 (1996) 241-244; cited from earlier work
[3] = test system: NADPH oxidase activity in neutrophils; assay: AOPP-HSA-induced NADPH oxidase activity in neutrophils, lucigenin chemiluminescence; type: cell-based; settings: neutrophils preincubated with various concentrations of NAC, AOPP-HSA 2 mg/ml, FIG. 2A
Description: as §1

[4] = test system: myeloperoxidase activity in monocytes; assay: AOPP-HSA-induced myeloperoxidase activity in monocytes, luminol chemiluminescence; type: cell-based; settings: AOPP-HSA 2 mg/ml, counts/min over 40 minutes, FIG. 1B
Description: (§2) Human serum albumin (HSA) was exposed to HOCl at a molar HSA/HOCl molar ratio of 1/60. The AOPP-HSA preparation was incubated 30 minutes at room temperature and then dialysed overnight against PBS. Isolation of monocytes was performed by an indirect magnetic labelling system which allows the magnetic depletion of non monocytes i.e., T cells, B cells, NK cells, dendritic cells and basophils from a mononuclear cell suspension (obtained by blood sedimentation on a Ficoll gradient) using a cocktail of CD3, CD7, CD19, CD45RA, CD56 and anti-IgE antibodies. Purified monocytes were resuspended at a concentration of 2.5×10^6/ml in phenol-red free Hank's balanced salt solution (HBSS). The capacity of AOPP-HSA to activate monocyte or neutrophil oxygenation activities was measured by chemiluminescence using dimethylbiacridinium (lucigenin) for NADH oxidase activity or luminol for myeloperoxidase activity as chemoluminogenic substrates. One hundred microliters of monocyte suspension (2×10^5/ml) was automatically injected into the luminometer tubes containing 100 μl of HBSS (basal activity), or the tested preparations including: native HSA or AOPP-HSA at 2 mg/ml. Chemiluminescence production was measured in duplicate and luminescence intensity was expressed in counts/min integrated over a 40 minutes period.

[5] = test system: NADPH oxidase activity in monocytes; assay: AOPP-HSA-induced NADPH oxidase activity in monocytes, lucigenin chemiluminescence; type: cell-based; settings: AOPP-HSA 2 mg/ml, counts/min over 40 minutes, FIG. 2B
Description: as §2

Compound: CC(=O)N[C@@H](CS)C(=O)O [NAC, N-acetylcysteine]
- inhibition of myeloperoxidase activity triggered by AOPP-HSA [1]: dose-dependent inhibition
- efficacy in the treatment of patients undergoing dialysis [2]: without efficacy
- inhibition of NADPH oxidase activity triggered by AOPP-HSA [3]: dose-dependent inhibition
- inhibition of myeloperoxidase activity triggered by AOPP-HSA [4]: dose-dependent inhibition
- inhibition of NADPH oxidase activity triggered by AOPP-HSA [5]: dose-dependent inhibition

— US6627659B1, “Methods of decreasing the effects of oxidative stress using N-acetylcysteine” (Zambon Group S.p.A., priority 1999, dated 2003)
